Here are results for 8 compounds from PubChem BioAssay (NCI).

Some test systems named below: CCRF-CEM leukemia; MALME-3M melanoma; OVCAR-8 ovarian; MCF7 breast; UACC-62 melanoma; SN12C renal; DU-145 prostate; HCT-116 colon; COLO 205 colon; SNB-75 CNS.
What all share (assay): DTP human tumour cell line panel, 48 h

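Tested at 5 concentrations; 48 h exposure; 96-well plates; endpoints linearly interpolated, else capped at highest concentration. Here, GI50 denotes the concentration required for 50% inhibition of growth. TGI marks complete inhibition of growth.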

Turning to `COc1ccc2c(c1)[n+]([O-])c(/C(C)=N/NC(N)=S)c(C)[n+]2[O-]`, the TGI in the experiment on CCRF-CEM leukemia, in the experiment on MALME-3M melanoma, in the experiment with OVCAR-8 ovarian, with MCF7 breast, with UACC-62 melanoma and with SN12C renal was > 100000 nM throughout. In addition, the total growth inhibition concentration (TGI) (as a rule, the concentration giving total growth inhibition) in the experiment on DU-145 prostate was > 100000 nM; with HCT-116 colon, > 93200 nM; in the experiment with COLO 205 colon, > 100000 nM; in the experiment on SNB-75 CNS, > 100000 nM.

Take `S=P(C1CCCCC1)(C1CCCCC1)C(c1cccnc1)N1CCCC1` (centres undefined): the TGI in the experiment on CCRF-CEM leukemia is 36300 nM; with MALME-3M melanoma, 39900 nM; with OVCAR-8 ovarian it was 51700 nM; with MCF7 breast, > 100000 nM; in the experiment on UACC-62 melanoma, 52500 nM; in the experiment with SN12C renal, 33100 nM. Further, the TGI amounted to 29800 nM in the experiment on DU-145 prostate, 34200 nM in the experiment with HCT-116 colon, 37300 nM with COLO 205 colon and 35400 nM in the experiment with SNB-75 CNS.

`CS(=O)(=O)c1nccc(-c2c(-c3cccc(OCc4ccccc4)c3)nc3sccn23)n1`: the GI50 (commonly the concentration giving 50% growth inhibition) was > 30100 nM in the experiment on CCRF-CEM leukemia; 16400 nM in the experiment with MALME-3M melanoma; > 27400 nM in the experiment with OVCAR-8 ovarian; 7310 nM in the experiment with MCF7 breast; 13800 nM in the experiment with UACC-62 melanoma; 26200 nM with SN12C renal. Besides, the GI50 with DU-145 prostate is 1760 nM; in the experiment with HCT-116 colon it was 7160 nM; with COLO 205 colon, 25300 nM; in the experiment with SNB-75 CNS, > 28500 nM. The TGI in the experiment on CCRF-CEM leukemia, in the experiment with MALME-3M melanoma, in the experiment on OVCAR-8 ovarian, with MCF7 breast, with UACC-62 melanoma and in the experiment with SN12C renal was > 100000 nM each time. Besides, the total growth inhibition concentration (TGI) with DU-145 prostate was 3310 nM; in the experiment with HCT-116 colon, > 100000 nM; in the experiment with COLO 205 colon, > 100000 nM; in the experiment on SNB-75 CNS it was > 100000 nM.

As for `N#Cc1c(N)n(C2OC(CO)C(O)C2O)c2ncnc(N)c12` (centres undefined), the TGI with CCRF-CEM leukemia was 1340 nM; with MALME-3M melanoma, 161 nM; with OVCAR-8 ovarian it was 279 nM; in the experiment with MCF7 breast, 1210 nM; in the experiment with UACC-62 melanoma, 94.1 nM; in the experiment with SN12C renal, 856 nM. Moreover, the TGI in the experiment on DU-145 prostate is > 17400 nM; in the experiment on HCT-116 colon, > 7590 nM; in the experiment on COLO 205 colon, 191 nM; with SNB-75 CNS, 3560 nM.

Consider `COc1ccc(C(=O)OC2C(OC3C(O)COC(O[C@H]4C[C@H]5[C@@H]6CC=C7C[C@@H](O)CC[C@]7(C)[C@H]6CC[C@]5(C)[C@H]4[C@H](C)C(=O)CCC(C)C)C3OC(=O)C(C)C)OCC(O)C2O)cc1` (some centres undefined), for which the GI50 in the experiment with CCRF-CEM leukemia is 5.74 nM; in the experiment with MALME-3M melanoma, 41.1 nM; in the experiment on OVCAR-8 ovarian it was 2820 nM; in the experiment with MCF7 breast, 13.6 nM; in the experiment with UACC-62 melanoma, 6.68 nM; in the experiment on SN12C renal, 3020 nM. In addition, the GI50 is 17 nM in the experiment on DU-145 prostate, 10.7 nM in the experiment on HCT-116 colon, 57.5 nM in the experiment on COLO 205 colon and 6.98 nM in the experiment on SNB-75 CNS. Moreover, the TGI in the experiment on CCRF-CEM leukemia is 31.7 nM; in the experiment with MALME-3M melanoma, 2880 nM; with OVCAR-8 ovarian, 8400 nM; with MCF7 breast, 2990 nM; in the experiment with UACC-62 melanoma it was 18.5 nM; in the experiment on SN12C renal, 6530 nM. Moreover, the TGI was 4650 nM with DU-145 prostate, 3250 nM in the experiment on HCT-116 colon, 325 nM in the experiment on COLO 205 colon and 4900 nM with SNB-75 CNS.

With `COc1ccc(Nc2[nH]n(C3=Nc4ccccc4Sc4ccccc43)c(=O)c2C#N)cc1`, the GI50 is 1190 nM in the experiment on CCRF-CEM leukemia; 2670 nM with MALME-3M melanoma; 2010 nM with OVCAR-8 ovarian; 2180 nM in the experiment with MCF7 breast; 1210 nM with UACC-62 melanoma; 2360 nM with SN12C renal. Further, the GI50 in the experiment with DU-145 prostate is 2830 nM; in the experiment with HCT-116 colon it was 1330 nM; in the experiment on COLO 205 colon, 1510 nM; with SNB-75 CNS it was 1510 nM. The TGI is > 100000 nM with CCRF-CEM leukemia; > 100000 nM in the experiment on MALME-3M melanoma; > 100000 nM in the experiment with OVCAR-8 ovarian; 11700 nM in the experiment with MCF7 breast; 11000 nM in the experiment with UACC-62 melanoma; > 100000 nM with SN12C renal. Besides, the TGI was 61500 nM with DU-145 prostate, 12000 nM with HCT-116 colon, 3350 nM in the experiment on COLO 205 colon and > 100000 nM in the experiment on SNB-75 CNS.

Turning to `Cc1ccccc1NC(=O)N/C(N)=N/c1nc(C)c(C)s1`, the GI50 is 243 nM in the experiment with CCRF-CEM leukemia; 3540 nM with MALME-3M melanoma; 512 nM in the experiment with OVCAR-8 ovarian; 142 nM with MCF7 breast; 179 nM with UACC-62 melanoma; 1230 nM with SN12C renal. Moreover, the GI50 in the experiment on DU-145 prostate is 481 nM; in the experiment on HCT-116 colon it was 321 nM; in the experiment on COLO 205 colon, 295 nM; in the experiment on SNB-75 CNS it was 175 nM. Further, the TGI is > 100000 nM in the experiment with CCRF-CEM leukemia; > 100000 nM in the experiment on MALME-3M melanoma; > 79600 nM in the experiment on OVCAR-8 ovarian; > 100000 nM in the experiment with MCF7 breast; > 100000 nM in the experiment on UACC-62 melanoma; > 100000 nM in the experiment on SN12C renal. Besides, the TGI was > 100000 nM in the experiment with DU-145 prostate, > 75900 nM in the experiment on HCT-116 colon and 754 nM with SNB-75 CNS.

As to `O=C(/C=C/c1ccccc1)Nc1ncc(Cc2ccccc2)s1`, the GI50 in the experiment on CCRF-CEM leukemia is 194 nM; in the experiment on MALME-3M melanoma, 1080 nM; with OVCAR-8 ovarian, 488 nM; in the experiment with MCF7 breast it was 139 nM; with UACC-62 melanoma, 125 nM; with SN12C renal it was 597 nM. Further, the GI50 in the experiment on DU-145 prostate is 396 nM; in the experiment on HCT-116 colon it was 141 nM; with COLO 205 colon it was 288 nM; with SNB-75 CNS, 138 nM. The TGI in the experiment with CCRF-CEM leukemia was > 80800 nM; in the experiment on MALME-3M melanoma, > 100000 nM; in the experiment with OVCAR-8 ovarian, > 40900 nM; with MCF7 breast it was > 100000 nM; in the experiment with UACC-62 melanoma it was 4280 nM; in the experiment with SN12C renal it was > 52000 nM. Besides, the TGI with DU-145 prostate is > 100000 nM; in the experiment with HCT-116 colon, > 33400 nM; in the experiment with COLO 205 colon, 2130 nM; in the experiment with SNB-75 CNS, 1990 nM.
